Experiment [1] has as its system coronary artery (isolated heart). Description: Coronary vascular dilative effect, isolated perfused guinea pig heart, Langendorff's method (perfusion pressure). Conditions: for Pharmacological data ED50: 0.1 ml injected into coronary artery, isolated guinea pig heart, 37° C., 6 ml/minute; for coronary vascular dilative effects (in words): Langendorff's method, guinea pig heart. The protocol:
The coronary vascular dilative effect of 3N-substituted 3,4-dihydropryrimidine derivatives was tested.
Heartly guinea pigs (weight 400-500 g) were clubbed dead and their hearts were immediately isolated. The hearts were perfused with Krebs-Henseleit solution bubbled with a mixture of 95% O2 +5% CO2 and maintained at 37° C. at a certain rate of 6 ml/minute according to Langendorff's method [J. Pharmacol. Methods 2, 143 (1979)]. The perfusion pressure was determined by a pressure transducer. Samples were prepared by dissolving 1 mg of a test compound in 1 ml of a mixture of dimethylsulfoxide and physiological saline (1:9) and diluting with physiological saline the solution to the predetermined concentration. 0.1 ml of the diluted solution was administered into the coronary artery via a rubber tube connected to an aorta cannula to obtain ED50 (μg/heart) data as shown in Table 1. The numbers of the compounds in the Table correspond respectively to those of the working examples described above.

The test system of the next experiment is vertebral artery. The experiment is described as follows: Blood flow and blood vessel resistance of vertebral artery in anesthetized dogs. The experiment is classed as in vivo, dog. Particulars: Canis lupus familiaris, iv. Here is the method: (§1) The pharmacological effects of the compounds of the present invention with respect to the blood flow and blood vessel resistance of vertebral artery and systemic blood pressure (average pressure) in anesthetized dogs. […] The first and second ribs were cut open to expose the left vertebral artery. A probe was attached to the origin of the artery and the blood flow was measured with an electromagnetic rheometer (Model MF-27, product of Nihon Koden K.K.) At the same time, continuous measurement of the following parameters was made: systemic blood pressure (average pressure) at the right femoral artery, the ECG in the second induction period, the heart beat with a tachometer driven by the R wave, and the blood vessel resistance determined by loading a multiplication/division unit (EO-601 G, product of Nihon Koden K.K.) with the average values of blood pressure and blood flow in the vertebral artery. All of these parameters were recorded simultaneously on a polygraph (RM-600, product of Nihon Koden, K.K.) All of the test compounds were injected through a cannula inserted into the femoral […].

The subject of the next experiment is systemic blood pressure. Description: Systemic blood pressure (average pressure) in anesthetized dogs. It is filed as in vivo, dog. Particulars: Canis lupus familiaris, iv, read-out: Average blood pressure, percentage compared with control. Here is the method:
as §1

[2] abbreviates: 0.001 mg/kg, % of value before administration, average ± standard error, read-out: Vertebral artery blood flow, percentage compared with control.
Where [3] appears, read: 0.001 mg/kg, % of value before administration, average ± standard error, read-out: Vertebral artery vessel resistance, percentage compared with control.
Setting [4] is: % of value before administration, average ± standard error, read-out: Vertebral artery blood flow, percentage compared with control.
Setting [5] is: % of value before administration, average ± standard error, read-out: Vertebral artery vessel resistance, percentage compared with control.
[6] abbreviates: 0.1 mg/kg, % of value before administration, average ± standard error, read-out: Vertebral artery blood flow, percentage compared with control.
Setting [7] is: 0.1 mg/kg, % of value before administration, average ± standard error, read-out: Vertebral artery vessel resistance, percentage compared with control.
Setting [8] is: 0.001 mg/kg, % of value before administration, average ± standard error.
[9] abbreviates: % of value before administration, average ± standard error.
Where [10] appears, read: 0.1 mg/kg, % of value before administration, average ± standard error.
Where [11] appears, read: read-out: Vertebral artery blood flow, percentage compared with control.
Setting [12] is: read-out: Vertebral artery vessel resistance, percentage compared with control.

Read-outs that look alike come from different tables or passages of the source.

Regarding `CCOC(=O)C1=C(C)N=C(C)N(C(=O)OC)C1c1ccccc1[N+](=O)[O-]` (stereo not shown) [Compound 5], in experiment [1], the “Pharmacological data ED50” value was 0.066 μg/heart and the “coronary vascular dilative effects (in words)” value is recorded as “extremely strong coronary vascular dilative effects”.

With `CCOC(=O)N1C(C)=NC(Cl)=C(C(=O)OC)C1c1ccccc1[N+](=O)[O-]` (stereo not shown) [Compound 9], in experiment [1], the “Pharmacological data ED50” value is 0.78 μg/heart.

With `CCOC(=O)C1=C(C)N=C(C)N(C(=O)OCC)C1c1ccccc1Br` (stereo not shown) [Compound 8], the “Pharmacological data ED50” value in experiment [1] was 0.033 μg/heart. In addition, the “coronary vascular dilative effects (in words)” value in experiment [1] is “extremely strong coronary vascular dilative effects”. Besides, the response vs control in vivo at 0.001 mg/kg turned out to be 110% in the experiment with vertebral artery (setting [2]), 89% in the experiment with vertebral artery (setting [3]) and 93% in the experiment on systemic blood pressure (setting [8]). The results for the response vs control in vivo at 0.003 mg/kg in the experiment on vertebral artery (setting [4]), in the experiment on vertebral artery (setting [5]) and in the experiment with systemic blood pressure (setting [9]) were 117%, 81% and 87%, respectively. Besides, the response vs control in vivo at 0.01 mg/kg came out at 140% with vertebral artery (setting [4]), 64% in the experiment on vertebral artery (setting [5]) and 81% with systemic blood pressure (setting [9]). Also, the response vs control in vivo at 0.03 mg/kg in the experiment with vertebral artery (setting [4]) was determined as 182%; in the experiment on vertebral artery (setting [5]) it was 48%; with systemic blood pressure (setting [9]) it was 83%. Moreover, the response vs control in vivo at 0.1 mg/kg in the experiment on vertebral artery (setting [6]) turned out to be 211%; with vertebral artery (setting [7]), 40%; with systemic blood pressure (setting [10]), 79%.

As for `CCOC(=O)C1=C(Cl)N=C(C)N(C(=O)OC)C1c1ccccc1[N+](=O)[O-]` (stereo not shown) [Compound 6], the “Pharmacological data ED50” value in experiment [1] is 0.70 μg/heart.

Consider `CCOC(=O)C1=C(C)N=C(C)N(C(=O)OCC)C1c1ccccc1Cl` (stereo not shown) [Compound 22], for which the “Pharmacological data ED50” value in experiment [1] is reported as 0.086 μg/heart. Further, the “coronary vascular dilative effects (in words)” value in experiment [1] was “extremely strong coronary vascular dilative effects”. In addition, the response vs control in vivo at 0.001 mg/kg was found to be 105% in the experiment with vertebral artery (setting [2]), 96% with vertebral artery (setting [3]) and 94% with systemic blood pressure (setting [8]). The response vs control in vivo at 0.003 mg/kg with vertebral artery (setting [4]) amounted to 119%; in the experiment on vertebral artery (setting [5]) it was 80%; in the experiment with systemic blood pressure (setting [9]) it was 89%. Besides, the response vs control in vivo at 0.01 mg/kg in the experiment with vertebral artery (setting [4]) turned out to be 136%; in the experiment with vertebral artery (setting [5]) it was 65%; in the experiment with systemic blood pressure (setting [9]), 82%. Besides, the response vs control in vivo at 0.03 mg/kg with vertebral artery (setting [4]) was 188%; in the experiment on vertebral artery (setting [5]), 49%; in the experiment with systemic blood pressure (setting [9]), 85%. Also, the response vs control in vivo at 0.1 mg/kg with vertebral artery (setting [6]) worked out at 229%; with vertebral artery (setting [7]) it was 39%; in the experiment on systemic blood pressure (setting [10]), 79%.

With `CCOC(=O)C1=C(C)N=C(C)N(C(=O)OC)C1c1cccc([N+](=O)[O-])c1` (stereo not shown) [Compound 3, 2,6-Dimethyl-5-ethoxycarbonyl-3-N-methoxycarbonyl-4-(3'-nitrophenyl)-3,4-dihydropyrimidine], the “Pharmacological data ED50” value in experiment [1] is 1.45 μg/heart.

For the molecule `CCOC(=O)N1C(C)=NC(C)=C(C(=O)OC)C1c1ccccc1[N+](=O)[O-]` (stereo not shown) [Compound 7], the “Pharmacological data ED50” value in experiment [1] worked out at 0.40 μg/heart.

In the case of `COC(=O)C1=C(Cl)N=C(C)N(C(=O)OC)C1c1cccc([N+](=O)[O-])c1` (stereo not shown) [Compound 15], the “Pharmacological data ED50” value in experiment [1] is recorded as 2.8 μg/heart.

Regarding `COC(=O)C1=C(Cl)N=C(C)N(C(=O)OC)C1c1ccccc1[N+](=O)[O-]` (stereo not shown) [Compound 11], the “Pharmacological data ED50” value in experiment [1] stood at 1.65 μg/heart.

Turning to `COc1ccc(Cc2nccc3cc(OC)c(OC)cc23)cc1OC` [Papaverine, reference compound], in the experiment with vertebral artery (setting [11]), the response vs control in vivo at 0.1 mg/kg was 123 ± 4%, the response vs control in vivo at 0.3 mg/kg was 151 ± 8% and the response vs control in vivo at 1 mg/kg was found to be 184 ± 14%. Also, in the experiment on vertebral artery (setting [12]), the response vs control in vivo at 0.1 mg/kg was determined as 78 ± 3%, the response vs control in vivo at 0.3 mg/kg came out at 58 ± 3% and the response vs control in vivo at 1 mg/kg came out at 43 ± 3%. In the experiment with systemic blood pressure, the response vs control in vivo at 0.1 mg/kg amounted to 93 ± 1%, the response vs control in vivo at 0.3 mg/kg was found to be 83 ± 3% and the response vs control in vivo at 1 mg/kg is 73 ± 4%.

Take `CCOC(=O)C1=C(C)N=C(C)N(C(=O)OC)C1c1ccc(SC)cc1` (stereo not shown) [Compound 21]: the “Pharmacological data ED50” value in experiment [1] turned out to be 1.0 μg/heart.

Regarding `CCOC(=O)C1=C(Cl)N=C(C)N(C(=O)OC)C1c1cccc([N+](=O)[O-])c1` (stereo not shown) [Compound 2, 6-Chloro-5-ethoxycarbonyl-3-N-methoxycarbonyl-2-methyl-4-(3'-nitrophenyl)-3,4-dihydropyrimidine], the “Pharmacological data ED50” value in experiment [1] amounted to 0.98 μg/heart.

As to `CCOC(=O)C1=C(Cl)N=C(C)N(C(=O)OCC)C1c1ccc(SC)cc1` (stereo not shown) [Compound 18], in experiment [1], the “Pharmacological data ED50” value was determined as 0.37 μg/heart.

`CCOC(=O)N1C(C)=NC(C)=C(C(=O)OC)C1c1cccc([N+](=O)[O-])c1` (stereo not shown) [Compound 14]: in experiment [1], the “Pharmacological data ED50” value was 1.1 μg/heart.

For `CCOC(=O)C1=C(Cl)N=C(C)N(C(=O)OC)C1c1ccc(SC)cc1` (stereo not shown) [Compound 20], in experiment [1], the “Pharmacological data ED50” value was determined as 0.22 μg/heart.

Turning to `COC(=O)C1=C(C)NC(C)=C(C(=O)OC)C1c1ccccc1[N+](=O)[O-]` [Nifedipine, reference compound], the response vs control in vivo at 0.0001 mg/kg was found to be 114% with vertebral artery (setting [11]); 79% in the experiment on vertebral artery (0.0001 mg/kg, % of value before administration, read-out: Vertebral artery vessel resistance, percentage compared with control); 94% in the experiment on systemic blood pressure. Further, the response vs control in vivo at 0.0003 mg/kg in the experiment on vertebral artery (setting [11]) is 129%; in the experiment with vertebral artery (0.0003 mg/kg, % of value before administration, average ± standard error, read-out: Vertebral artery vessel resistance, percentage compared with control) it was 67%; in the experiment with systemic blood pressure, 94%. In addition, the figures for the response vs control in vivo at 0.001 mg/kg in the experiment on vertebral artery (setting [11]), in the experiment with vertebral artery (setting [3]) and with systemic blood pressure were 154%, 57% and 87%, respectively.

As to `CCOC(=O)N1C(C)=NC(Cl)=C(C(=O)OC)C1c1cccc([N+](=O)[O-])c1` (stereo not shown) [Compound 16], the “Pharmacological data ED50” value in experiment [1] is reported as 10.0 μg/heart.

Regarding `CCOC(=O)C1=C(C)N=C(C)N(C(=O)OCC)C1c1ccc(SC)cc1` (stereo not shown) [Compound 19], in experiment [1], the “Pharmacological data ED50” value was 0.58 μg/heart.

Take `COC(=O)C1=C(C)NC(C)=C(C(=O)OCCN(C)Cc2ccccc2)C1c1cccc([N+](=O)[O-])c1` (stereo not shown) [Nicardipine, reference compound]: the response vs control in vivo at 0.001 mg/kg in the experiment on vertebral artery (setting [2]) amounted to 123 ± 7%; with vertebral artery (setting [3]), 79 ± 4%; in the experiment with systemic blood pressure (setting [8]), 90 ± 1%. The response vs control in vivo at 0.003 mg/kg with vertebral artery (setting [4]) was 147 ± 15%; in the experiment with vertebral artery (setting [5]), 67 ± 7%; in the experiment on systemic blood pressure (setting [9]), 87 ± 2%. The results for the response vs control in vivo at 0.01 mg/kg in the experiment on vertebral artery (setting [4]), in the experiment on vertebral artery (setting [5]) and in the experiment with systemic blood pressure (setting [9]) were 183 ± 13%, 49 ± 3% and 80 ± 2%, respectively.

These data come from patent publication US4640922A, “3N-substituted 3,4-dihydropyrimidines as agents for treating disorders of cardiovascular system” (Suntory Limited, priority 1984, dated 1987).
